In brackets after ≈: the same amount, converted by molar mass. *1 amine or outer side, *2 acyl side, *3 side chain or, on linkers, in order; H or OH if unused. Where a SMILES comes first, the peptide text is derived from it. Side-chain parts run from the residue outwards. [ ]: non-standard residue; d: D form. The star is where a group is joined. γGlu = O=C(O)[C@H](CCC(=O)[*:2])N[*:1]; Palmitoyl = CCCCCCCCCCCCCCCC(=O)*
Experiments:
[1] = biological target: T1, human GLP-1 receptor (hGLP-1 R) (Homo sapiens, UniProt P43220); test: cAMP response (HTRF) of HEK-293 cells stably expressing human GLP-1 receptor; assay type: cell-based; settings: HEK-293 cells expressing human GLP-1 receptor, cAMP formation
T1 construct: expressed in transfected cells; host or cells: HEK-293
T1 sequence (P43220 24-463): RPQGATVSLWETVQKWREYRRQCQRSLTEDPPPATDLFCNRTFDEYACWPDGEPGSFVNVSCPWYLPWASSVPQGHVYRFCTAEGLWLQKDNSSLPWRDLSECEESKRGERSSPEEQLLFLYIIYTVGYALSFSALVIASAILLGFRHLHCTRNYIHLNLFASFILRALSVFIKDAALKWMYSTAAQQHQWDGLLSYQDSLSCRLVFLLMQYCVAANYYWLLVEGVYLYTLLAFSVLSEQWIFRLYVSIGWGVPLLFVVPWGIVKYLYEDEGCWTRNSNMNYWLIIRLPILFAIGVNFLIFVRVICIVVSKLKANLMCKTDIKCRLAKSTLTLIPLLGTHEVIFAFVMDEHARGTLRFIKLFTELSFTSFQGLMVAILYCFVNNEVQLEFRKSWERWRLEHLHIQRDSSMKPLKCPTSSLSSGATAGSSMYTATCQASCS
How it was run: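 Detached HEK-293 cells stably expressing the receptor were suspended in HBSS with 20 mM HEPES, 0.1% BSA and 2 mM IBMX. Test compound was added for 30 min at room temperature, and cellular cAMP was quantified by HTRF.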

physchem = assay type: physicochemical
Description: Prior to the testing of solubility and stability of a peptide batch, its content was determined. Therefore, two parameters were investigated, its purity (HPLC-UV) and the amount of salt load of the batch (ion chromatography). Since synthesized peptides contain primarily trifluoracetate anions, only anion chromatography was performed. The content was then calculated based on the assumption that peptide-related impurities are detected at the same UV-absorption rate as the target peptide, as well as that cations are not present in the sample.
Therefore, solutions from solid samples were prepared in different buffer systems with a concentration of 1.0 mg/mL compound based on the previously determined content. HPLC-UV was performed after 2 h of gentle agitation from the supernatant, which was obtained by 20 min of centrifugation at 4000 rpm. […] This analysis also served as t0 for the stability testing.
Instrument: Agilent 1100, column: X-Bridge C18 3.5 μm 2.1×150 mm (Waters), eluent: A: H20+500 ppm TFA/B: Methanol, flow: 0.55 ml/min, gradient: 0-5 min: 10-60% B; 5-15 min: 60-99% B; detection: 214 nm.

[2] = tested on: female diet-induced obese C57BL/6NCrl mice; test: Single subcutaneous treatment, blood glucose in diet-induced obese mice; assay type: in vivo; settings: single s.c. 100 μg/kg, fed DIO mice (9 months on high-fat diet)
Description: Female C57BL/6NCrl mice were housed in groups (n=8) and had ad-libitum access to high-fat diet and water. Initial blood samples were taken just before administration (s.c.) of vehicle (phosphate buffer solution) or the exendin-4 analogue (e.g. SEQ ID NO: (7)) (100 μg/kg in phosphate buffer) in fed DIO mice. The volume of administration was 5 mL/kg. The animals had access to high-fat diet and water during the experiment, food consumption was determined at all time points for blood sampling. Blood glucose levels were measured at t=0.5 h, t=1 h, t=2 h, t=4 h, t=6 h, t=8 h, and t=24 h. Blood sampling was performed by tail incision without anaesthesia. Statistical analyses were performed with Everstat 6.0 by repeated measures two-way ANOVA and Dunnetts post-hoc analyses. Differences were considered statistically significant at the p<0.05 level.

female NMRI-mice [3] = test: Gastric emptying and intestinal passage in mice; assay type: in vivo; settings: 0.02 mg/kg s.c., 30 min prior to coloured bolus; p<0.0001
Description: Female NMRI-mice of a body weight between 20 and 30 g were used. Mice were adapted to housing conditions for at least one week. Mice were overnight fasted, while water remained available all the time. On the study day, mice were weighed, single-caged and allowed access to 500 mg of feed for 30 min, while water was removed. At the end of the 30 min feeding period, remaining feed was removed and weighed. 60 min later, a coloured, non-caloric bolus was instilled via gavage into the stomach. The test product or its vehicle in the control group was administered subcutaneously, to reach Cmax when coloured bolus was administered. After another 30 min, the animals were sacrificed and the stomach and the small intestine prepared. The filled stomach was weighed, emptied, carefully cleaned and dried and reweighed. The calculated stomach content indicated the degree of gastric emptying. The small intestine was straightened without force and measured in length. Then the distance from the gastric beginning of the gut to the tip of the farthest travelled intestinal content bolus was measured. The intestinal passage was given as relation in percent of the latter distance and the total length of the small intestine. Statistical analyses were performed with Everstat 6.0 by Student's T-Test. Differences were considered statistically significant at the p<0.05 level. […]

female NMRI-mice [4] = test: Automated assessment of feed intake in mice (22 hours); assay type: in vivo
Description: Female NMRI-mice of a body weight between 20 and 30 g were used. Mice were adapted to housing conditions for at least one week and for at least one day single-caged in the assessment equipment, when basal data were recorded simultaneously. On the study day, test product was administered subcutaneously close to the lights-off phase (12 h lights off) and assessment of feed consumption was directly started afterwards. Assessment included continued monitoring (every 30 min) over 22 hours. Repetition of this procedure over several days was possible. Restriction of assessment to 22 hours was for practical reason to allow for reweighing of animals, refilling of feed and water and drug administration between procedures. Results could be assessed as cumulated data over 22 hours or differentiated to 30 min intervals. Statistical analyses were performed with Everstat 6.0 by two-way ANOVA on repeated measures and Dunnetts post-hoc analyses. Differences were considered statistically significant at the p<0.05 level. Fed female NMRI-mice, weighing on average 27 g, were administered 0.01 or 0.1 mg/kg of SEQ ID NO: (7) or phosphate buffered saline (vehicle control) subcutaneously, directly prior to start of feeding monitoring. Lights-off phase (dark phase) started 4 hours later.

[5] = biological target: T2, human glucagon receptor (hGlucagon R) (Homo sapiens, UniProt P47871); test: cAMP response (HTRF) of HEK-293 cells stably expressing human glucagon receptor; assay type: cell-based; settings: read-out: EC50 hGlucagonR
T2 construct: expressed in transfected cells; host or cells: HEK-293
T2 sequence (P47871 26-477): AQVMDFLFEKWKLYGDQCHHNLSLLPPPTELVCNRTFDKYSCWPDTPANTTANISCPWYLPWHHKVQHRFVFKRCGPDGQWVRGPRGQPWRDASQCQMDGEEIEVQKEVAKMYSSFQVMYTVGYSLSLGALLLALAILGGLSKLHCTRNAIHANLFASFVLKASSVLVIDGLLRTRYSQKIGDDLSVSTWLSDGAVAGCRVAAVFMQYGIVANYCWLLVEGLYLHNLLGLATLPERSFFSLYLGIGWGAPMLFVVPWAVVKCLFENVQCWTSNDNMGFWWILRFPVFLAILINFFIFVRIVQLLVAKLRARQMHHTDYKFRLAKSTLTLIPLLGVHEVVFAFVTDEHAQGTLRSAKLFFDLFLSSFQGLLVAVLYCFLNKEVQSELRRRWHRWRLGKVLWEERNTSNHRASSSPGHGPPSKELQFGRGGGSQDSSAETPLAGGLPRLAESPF
Description: cAMP content of cells was determined using a kit from Cisbio Corp. (cat. no. 62AM4PEC) based on HTRF (Homogenous Time Resolved Fluorescence). For preparation, cells were split into T175 culture flasks and grown overnight to near confluency in medium (DMEM/10% FBS). Medium was then removed and cells washed with PBS lacking calcium and magnesium, followed by proteinase treatment with accutase (Sigma-Aldrich cat. no. A6964). Detached cells were washed and resuspended in assay buffer (1×HBSS; 20 mM HEPES, 0.1% BSA, 2 mM IBMX) and cellular density determined. […] For measurement, 25 μl of test compound in assay buffer was added to the wells, followed by incubation for 30 minutes at room temperature.

| Structure (SMILES) | EC50 [1] [pM] | solubility at 2 h (physchem; pH 4.5) [µg/mL] | solubility at 2 h (physchem; pH 7.4) [µg/mL] | blood glucose over 24 h compared to vehicle-treated control animals [2] | reduction of intestinal passage (female NMRI-mice [3]) [%] | reduction of feed intake at the end of the study (22 hours) (female NMRI-mice [4]; 0.01 mg/kg s.c., p=0.0027) [%] | reduction of feed intake at the end of the study (22 hours) (female NMRI-mice [4]; 0.1 mg/kg s.c., p<0.0001) [%] | EC50 [5] [pM] |
| --- | --- | --- | --- | --- | --- | --- | --- | --- |
| CCCCCCCCCCCCCCCC(=O)N[C@@H](CCC(=O)NCCCC[C@H](NC(=O)[C@H](CO)NC(=O)[C@@H]1CCCN1C(=O)[C@@H]1CCCN1C(=O)[C@@H]1CCCN1C(=O)[C@H](C)NC(=O)CNC(=O)[C@H](CO)NC(=O)[C@H](CO)NC(=O)[C@@H]1CCCN1C(=O)CNC(=O)CNC(=O)[C@H](CC(N)=O)NC(=O)[C@H](CCCCN)NC(=O)[C@H](CC(C)C)NC(=O)[C@H](Cc1c[nH]c2ccccc12)NC(=O)[C@H](CCC(=O)O)NC(=O)[C@@H](NC(=O)[C@H](Cc1ccccc1)NC(=O)[C@H](CC(=O)O)NC(=O)[C@H](CCC(N)=O)NC(=O)[C@H](C)NC(=O)[C@H](CCCNC(=N)N)NC(=O)[C@H](CCCNC(=N)N)NC(=O)[C@H](CO)NC(=O)[C@H](CC(=O)O)NC(=O)[C@H](CCSC)NC(=O)[C@H](CCC(N)=O)NC(=O)[C@H](CCCCN)NC(=O)[C@H](CO)NC(=O)[C@H](CC(C)C)NC(=O)[C@H](CC(=O)O)NC(=O)[C@H](CO)NC(=O)[C@@H](NC(=O)[C@H](Cc1ccccc1)NC(=O)[C@@H](NC(=O)CNC(=O)[C@H](CCC(N)=O)NC(=O)[C@@H](CO)NC(=O)[C@@H](N)Cc1c[nH]cn1)[C@@H](C)O)[C@@H](C)O)[C@@H](C)CC)C(N)=O)C(=O)O [(7)] | 5.2 | > 1000 | > 1000 | significantly decreased | 54 | 17 | 37 | – |
| CCCCCCCCCCCCCCCC(=O)N[C@@H](CCC(=O)NCCCC[C@H](NC(=O)[C@H](CO)NC(=O)[C@@H]1CCCN1C(=O)[C@@H]1CCCN1C(=O)[C@@H]1CCCN1C(=O)[C@H](C)NC(=O)CNC(=O)[C@H](CO)NC(=O)[C@H](CO)NC(=O)[C@@H]1CCCN1C(=O)CNC(=O)CNC(=O)[C@H](C)NC(=O)[C@H](CCCCN)NC(=O)[C@H](CC(C)C)NC(=O)[C@H](Cc1c[nH]c2ccccc12)NC(=O)[C@H](CCC(=O)O)NC(=O)[C@@H](NC(=O)[C@H](Cc1ccccc1)NC(=O)[C@H](CC(C)C)NC(=O)[C@H](CCC(N)=O)NC(=O)[C@H](C)NC(=O)[C@H](C)NC(=O)[C@H](CCCNC(=N)N)NC(=O)[C@H](CO)NC(=O)[C@H](CCC(=O)O)NC(=O)[C@H](CCSC)NC(=O)[C@H](CCC(N)=O)NC(=O)[C@H](CCCCN)NC(=O)[C@H](CO)NC(=O)[C@H](CC(C)C)NC(=O)[C@H](CC(=O)O)NC(=O)[C@H](CO)NC(=O)[C@@H](NC(=O)[C@H](Cc1ccccc1)NC(=O)[C@@H](NC(=O)CNC(=O)[C@H](CCC(N)=O)NC(=O)[C@@H](CO)NC(=O)[C@@H](N)Cc1c[nH]cn1)[C@@H](C)O)[C@@H](C)O)[C@@H](C)CC)C(N)=O)C(=O)O [(79)] (H-H[dS]QGTFTSDLSKQMESRAAQLFIEWLKAGGPSSGAPPPSK([γGlu-Palmitoyl])-NH2) | 3.7 | > 1000 | 666 (≈ 145 µM) | – | – | – | – | 195 |

— patent publication US9181305B2, “Exendin-4 peptide analogues” (SANOFI, priority 2012, dated 2015)
